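Following 48 hours of exposure in 96-well plates, responses at five concentrations were used to interpolate endpoints linearly. GI50 is the concentration that inhibits growth by half.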 Calls of active or inactive are those of the source. No stated cut-off is given here; in the data, active = GI50 up to about 1.1 µM and inactive = higher.
Legend:
Experiment in all cases: NCI anticancer screen, dose series, 48 h
A549 = test system: A549
SW-620 = test system: SW-620
CAKI-1 = test system: CAKI-1
HCT-15 = test system: HCT-15
T47D = test system: T47D
OVCAR-8 = test system: OVCAR-8
RXF 393 = test system: RXF 393
OVCAR-5 = test system: OVCAR-5
HCC 2998 = test system: HCC 2998
ACHN = test system: ACHN
NCI/ADR-RES = test system: NCI/ADR-RES
MDA-MB-231 = test system: MDA-MB-231
SK-MEL-5 = test system: SK-MEL-5
COLO 205 = test system: COLO 205
HOP-62 = test system: HOP-62
PC-3 = test system: PC-3
KM12 = test system: KM12
MDA-N = test system: MDA-N
HCT-116 = test system: HCT-116
MOLT-4 = test system: MOLT-4
MDA-MB-435 = test system: MDA-MB-435
OVCAR-4 = test system: OVCAR-4
U-251 = test system: U-251
HOP-92 = test system: HOP-92
SK-OV-3 = test system: SK-OV-3
SF-539 = test system: SF-539
CCRF-CEM = test system: CCRF-CEM
SF-268 = test system: SF-268
BT-549 = test system: BT-549
HT-29 = test system: HT-29
HL-60 = test system: HL-60
NCI-H226 = test system: NCI-H226
EKVX = test system: EKVX
OVCAR-3 = test system: OVCAR-3
K562 = test system: K562
NCI-H522 = test system: NCI-H522
TK-10 = test system: TK-10
RPMI-8226 = test system: RPMI-8226
NCI-H460 = test system: NCI-H460
Malme-3M = test system: Malme-3M
SK-MEL-2 = test system: SK-MEL-2
LOX IMVI = test system: LOX IMVI
SN12C = test system: SN12C
SK-MEL-28 = test system: SK-MEL-28
SNB-19 = test system: SNB-19
SF-295 = test system: SF-295
NCI-H23 = test system: NCI-H23
786-0 = test system: 786-0
UO-31 = test system: UO-31
SNB-75 = test system: SNB-75
UACC-62 = test system: UACC-62
M14 = test system: M14
IGROV-1 = test system: IGROV-1
Hs-578T = test system: Hs-578T
UACC-257 = test system: UACC-257
DU-145 = test system: DU-145
MCF7 = test system: MCF7
SR = test system: SR
A498 = test system: A498

Structure (SMILES): NC(=S)NS(=O)(=O)c1ccc(Cl)cc1Cl
- GI50 (A549): > 100 µM (inactive)
- GI50 (SW-620): > 100 µM (inactive)
- GI50 (CAKI-1): > 100 µM (inactive)
- GI50 (HCT-15): > 100 µM
- GI50 (T47D): > 100 µM (inactive)
- GI50 (OVCAR-8): > 100 µM (inactive)
- GI50 (RXF 393): > 100 µM (inactive)
- GI50 (OVCAR-5): > 100 µM (inactive)
- GI50 (HCC 2998): > 100 µM (inactive)
- GI50 (ACHN): > 100 µM (inactive)
- GI50 (NCI/ADR-RES): > 100 µM (inactive)
- GI50 (MDA-MB-231): > 100 µM (inactive)
- GI50 (SK-MEL-5): > 100 µM (inactive)
- GI50 (COLO 205): > 100 µM (inactive)
- GI50 (HOP-62): > 100 µM (inactive)
- GI50 (PC-3): > 100 µM (inactive)
- GI50 (KM12): > 100 µM (inactive)
- GI50 (MDA-N): > 100 µM (inactive)
- GI50 (HCT-116): > 100 µM (inactive)
- GI50 (MOLT-4): > 100 µM (inactive)
- GI50 (MDA-MB-435): > 100 µM (inactive)
- GI50 (OVCAR-4): > 100 µM (inactive)
- GI50 (U-251): > 100 µM (inactive)
- GI50 (HOP-92): > 100 µM (inactive)
- GI50 (SK-OV-3): > 100 µM (inactive)
- GI50 (SF-539): > 100 µM (inactive)
- GI50 (CCRF-CEM): > 100 µM (inactive)
- GI50 (SF-268): > 100 µM (inactive)
- GI50 (BT-549): > 100 µM (inactive)
- GI50 (HT-29): > 100 µM (inactive)
- GI50 (HL-60): > 100 µM (inactive)
- GI50 (NCI-H226): > 100 µM (inactive)
- GI50 (EKVX): > 100 µM (inactive)
- GI50 (OVCAR-3): > 100 µM (inactive)
- GI50 (K562): > 100 µM (inactive)
- GI50 (NCI-H522): > 100 µM (inactive)
- GI50 (TK-10): > 100 µM (inactive)
- GI50 (RPMI-8226): > 100 µM (inactive)
- GI50 (NCI-H460): > 100 µM (inactive)
- GI50 (Malme-3M): > 100 µM (inactive)
- GI50 (SK-MEL-2): > 100 µM (inactive)
- GI50 (LOX IMVI): > 100 µM (inactive)
- GI50 (SN12C): > 100 µM (inactive)
- GI50 (SK-MEL-28): > 100 µM (inactive)
- GI50 (SNB-19): > 100 µM (inactive)
- GI50 (SF-295): > 100 µM (inactive)
- GI50 (NCI-H23): > 100 µM (inactive)
- GI50 (786-0): > 100 µM (inactive)
- GI50 (UO-31): > 100 µM (inactive)
- GI50 (SNB-75): > 100 µM (inactive)
- GI50 (UACC-62): > 100 µM (inactive)
- GI50 (M14): > 100 µM (inactive)
- GI50 (IGROV-1): > 100 µM (inactive)
- GI50 (Hs-578T): > 100 µM (inactive)
- GI50 (UACC-257): > 100 µM (inactive)
- GI50 (DU-145): > 100 µM (inactive)

Structure (SMILES): O=C1CCN(CCC(F)(F)C(F)(F)C(F)(F)C(F)(F)C(F)(F)C(F)(F)F)C(=S)N1CCC(F)(F)C(F)(F)C(F)(F)C(F)(F)C(F)(F)C(F)(F)F
- GI50 (A549): > 100 µM (inactive)
- GI50 (SW-620): > 100 µM (inactive)
- GI50 (CAKI-1): > 100 µM (inactive)
- GI50 (T47D): > 100 µM (inactive)
- GI50 (OVCAR-8): > 100 µM (inactive)
- GI50 (RXF 393): > 100 µM (inactive)
- GI50 (OVCAR-5): > 100 µM (inactive)
- GI50 (HCC 2998): > 100 µM (inactive)
- GI50 (ACHN): > 100 µM (inactive)
- GI50 (MDA-MB-231): > 100 µM (inactive)
- GI50 (SK-MEL-5): > 100 µM (inactive)
- GI50 (COLO 205): > 100 µM (inactive)
- GI50 (HOP-62): > 100 µM (inactive)
- GI50 (PC-3): > 100 µM (inactive)
- GI50 (MCF7): > 100 µM (inactive)
- GI50 (KM12): > 100 µM (inactive)
- GI50 (MDA-N): > 100 µM (inactive)
- GI50 (HCT-116): > 100 µM (inactive)
- GI50 (MOLT-4): > 100 µM (inactive)
- GI50 (MDA-MB-435): > 100 µM (inactive)
- GI50 (OVCAR-4): > 100 µM (inactive)
- GI50 (U-251): > 100 µM (inactive)
- GI50 (HOP-92): > 100 µM (inactive)
- GI50 (SK-OV-3): > 100 µM (inactive)
- GI50 (SF-539): > 100 µM (inactive)
- GI50 (CCRF-CEM): > 100 µM (inactive)
- GI50 (SF-268): > 100 µM (inactive)
- GI50 (BT-549): > 100 µM (inactive)
- GI50 (HT-29): > 100 µM (inactive)
- GI50 (HL-60): > 100 µM (inactive)
- GI50 (NCI-H226): > 100 µM (inactive)
- GI50 (EKVX): > 100 µM (inactive)
- GI50 (OVCAR-3): > 100 µM (inactive)
- GI50 (K562): > 100 µM (inactive)
- GI50 (NCI-H522): > 100 µM (inactive)
- GI50 (SR): > 100 µM (inactive)
- GI50 (TK-10): > 100 µM (inactive)
- GI50 (NCI-H460): > 100 µM (inactive)
- GI50 (Malme-3M): > 100 µM (inactive)
- GI50 (A498): > 100 µM (inactive)
- GI50 (SN12C): > 100 µM (inactive)
- GI50 (SK-MEL-28): > 100 µM (inactive)
- GI50 (SNB-19): > 100 µM (inactive)
- GI50 (SF-295): > 100 µM (inactive)
- GI50 (NCI-H23): > 100 µM (inactive)
- GI50 (786-0): > 100 µM (inactive)
- GI50 (UO-31): > 100 µM (inactive)
- GI50 (SNB-75): > 100 µM (inactive)
- GI50 (UACC-62): > 100 µM (inactive)
- GI50 (M14): > 100 µM (inactive)
- GI50 (IGROV-1): > 100 µM (inactive)
- GI50 (Hs-578T): > 100 µM (inactive)
- GI50 (UACC-257): > 100 µM (inactive)
- GI50 (DU-145): > 100 µM (inactive)

— ChEMBL document CHEMBL1201862, “PubChem BioAssay data set” (2004)
